Measured values: ChEMBL document CHEMBL1132029, “Specific, uncompetitive inhibition of beta-galactosidases by a 5,6-isopropylidenedioxyfuro[2,3-d]isoxazole-3-methanol derivative” (Bioorg Med Chem Lett, 1999)
The source made the active and inactive calls. The rule behind the calls is not given here.

What was measured:
[1] = molecular target: T1, Beta-galactosidase (Aspergillus niger) (UniProt P29853); assay: Inhibitory activity against beta-galactosidase from Aspergillus niger at a concentration of 1 mM; No activity
T1 sequence (whole entry): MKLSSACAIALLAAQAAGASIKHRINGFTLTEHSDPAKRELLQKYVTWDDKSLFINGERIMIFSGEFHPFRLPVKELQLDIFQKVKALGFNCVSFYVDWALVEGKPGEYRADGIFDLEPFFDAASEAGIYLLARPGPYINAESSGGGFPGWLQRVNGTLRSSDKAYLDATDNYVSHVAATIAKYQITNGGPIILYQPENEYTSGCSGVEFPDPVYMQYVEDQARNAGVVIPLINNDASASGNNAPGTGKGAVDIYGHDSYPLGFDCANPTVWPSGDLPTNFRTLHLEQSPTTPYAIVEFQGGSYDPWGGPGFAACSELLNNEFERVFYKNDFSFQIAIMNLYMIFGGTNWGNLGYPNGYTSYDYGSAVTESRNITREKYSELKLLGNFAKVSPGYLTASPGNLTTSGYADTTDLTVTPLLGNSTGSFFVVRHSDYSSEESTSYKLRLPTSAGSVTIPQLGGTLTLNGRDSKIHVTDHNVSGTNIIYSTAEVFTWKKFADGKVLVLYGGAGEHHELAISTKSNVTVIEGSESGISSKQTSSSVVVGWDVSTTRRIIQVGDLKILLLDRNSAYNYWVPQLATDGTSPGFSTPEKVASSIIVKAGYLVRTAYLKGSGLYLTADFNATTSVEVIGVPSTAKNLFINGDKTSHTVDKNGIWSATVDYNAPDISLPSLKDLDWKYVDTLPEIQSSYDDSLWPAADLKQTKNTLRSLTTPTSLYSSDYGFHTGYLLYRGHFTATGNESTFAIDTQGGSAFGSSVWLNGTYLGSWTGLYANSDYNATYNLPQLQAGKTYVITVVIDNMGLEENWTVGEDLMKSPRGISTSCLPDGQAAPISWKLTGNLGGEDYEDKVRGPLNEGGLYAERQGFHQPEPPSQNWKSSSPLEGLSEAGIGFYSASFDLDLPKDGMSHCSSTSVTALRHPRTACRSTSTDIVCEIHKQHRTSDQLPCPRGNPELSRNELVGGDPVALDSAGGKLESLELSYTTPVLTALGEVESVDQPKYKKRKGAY

[2] = Inhibitory activity against beta-galactosidase from Aspergillus oryzae at a concentration of 1 mM; No activity
[3] = molecular target: Beta-glucosidase A (Caldicellulosiruptor saccharolyticus) (UniProt P10482); assay: Inhibitory activity against beta-glucosidase from Caldocellum saccharolyticum at a concentration of 1 mM; No activity
Target sequence in this assay (P10482 whole entry, looked up): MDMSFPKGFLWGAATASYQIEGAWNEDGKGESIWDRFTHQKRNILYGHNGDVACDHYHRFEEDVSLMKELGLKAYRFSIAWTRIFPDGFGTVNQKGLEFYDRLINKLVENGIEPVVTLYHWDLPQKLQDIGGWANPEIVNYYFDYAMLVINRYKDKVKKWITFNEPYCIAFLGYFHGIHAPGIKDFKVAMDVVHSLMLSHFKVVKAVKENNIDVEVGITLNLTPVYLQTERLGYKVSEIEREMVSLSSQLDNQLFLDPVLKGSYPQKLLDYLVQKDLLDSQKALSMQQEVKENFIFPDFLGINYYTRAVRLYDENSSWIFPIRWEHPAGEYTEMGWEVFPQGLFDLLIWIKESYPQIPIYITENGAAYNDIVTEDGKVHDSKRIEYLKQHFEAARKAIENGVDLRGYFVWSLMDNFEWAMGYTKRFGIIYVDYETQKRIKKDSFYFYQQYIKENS

[4] = Inhibitory activity against beta-galactosidase from jack beans at a concentration of 1 mM; No activity; conditions: Canavalia ensiformis
[5] = molecular target: T1, Beta-galactosidase (Aspergillus niger); conditions: 1 mM
[6] = molecular target: Beta-glucosidase A (Caldicellulosiruptor saccharolyticus) (UniProt P10482); conditions: 1 mM
Target sequence in this assay (P10482 whole entry): as the sequence (P10482 whole entry, looked up) above

Beta-glucosidase A = Beta-glucosidase A (Caldicellulosiruptor saccharolyticus, UniProt P10482); assay: Inhibition of beta-glucosidase from Caldocellum saccharolyticum
Beta-glucosidase A, sequence (P10482 whole entry): as the sequence (P10482 whole entry, looked up) above

Beta-galactosidase = molecular target: T2, Beta-galactosidase (Aspergillus niger, UniProt P29853); assay: Inhibition of beta-galactosidase from Aspergillus niger
T2 sequence (P29853 whole entry): T1 sequence (whole entry)

[7] = Inhibitory activity against rice Alpha-galactosidase at concentration 1 mM
[8] = molecular target: Beta-glucosidase A (Caldicellulosiruptor saccharolyticus) (UniProt P10482); assay: Inhibitory activity against beta-glucosidase from Caldocellum saccharolyticum at a concentration of 1 mM; No activity
Target sequence in this assay (P10482 whole entry): as the sequence (P10482 whole entry, looked up) above

[9] = Inhibitory activity against beta-galactosidase from jack beans […]; No activity; conditions: Canavalia ensiformis

SMILES | Activity [1] | Activity [2] | Activity [3] | Activity [4] | Activity [8] | further results
CC1(C)O[C@H]2O[C@@H]3C(C4N[C@@H](c5ccccc5)[C@H](c5ccccc5)N4)=NO[C@@H]3[C@H]2O1 | inactive | inactive | inactive | inactive | – | –
CC1(C)O[C@@H]2O[C@H]3C(CO)=NO[C@H]3[C@@H]2O1 | – | – | – | – | – | inhibition [5]: 14%; inhibition [6]: 67%; IC50 (Beta-glucosidase A): 550 µM; Ki (Beta-glucosidase A): 5 µM; IC50 (Beta-galactosidase): 43 µM; Ki (Beta-galactosidase): 18 µM
OCC1=NO[C@H]2[C@H](O)C(O)O[C@@H]12 (stereo not given in full) | inactive | inactive | – | inactive | inactive | inhibition [7]: 59%
COCC1=NO[C@H]2[C@@H]3OC(C)(C)O[C@@H]3O[C@@H]12 | inactive | inactive | – | inactive | inactive | –
COCOCC1=NO[C@H]2[C@@H]3OC(C)(C)O[C@@H]3O[C@@H]12 | inactive | inactive | – | inactive | inactive | –
CC1(C)O[C@@H]2O[C@H]3C(C4N[C@@H](c5ccccc5)[C@H](c5ccccc5)N4)=NO[C@H]3[C@@H]2O1 | inactive | inactive | inactive | – | – | Activity [9]: inactive
CCOC(OCC)C1=NO[C@H]2[C@H](O)C(O)O[C@@H]12 (stereo not given in full) | inactive | inactive | inactive | inactive | – | –
CC1(C)O[C@@H]2O[C@H]3C(C=O)=NO[C@H]3[C@@H]2O1 | inactive | inactive | inactive | inactive | – | –
